Test results published in patent US8883827B2, “Azole derivatives as WTN pathway inhibitors” (Oslo University Hospital HF, priority 2009, dated 2014).

What was measured:
[1] = tested on: β-catenin; test: Western blot and immunocytochemistry of β-catenin in SW480 cells; format: cell-based
Procedure: The effect of compound No. 1 on the presence of β-catenin in the nucleus or in the cytoplasm of colorectal cancer SW480 cells was investigated. SW480 cells contain activating mutations in the APC gene, leading to elevated levels of nuclear β-catenin and aberrant canonical Wnt signaling. A Western blot analysis was carried out using cell lysates from compound-treated SW480 cells and an antibody against the active form of β-catenin (non-phosphorylated N-terminal—ABC). In parallel, antibodies were used against total β-catenin (β-catenin), or β-catenin phosphorylated at the N-terminal (-β-catenin) which detects a degradable form of β-catenin.
SW480 cells were seeded and treated with compound No. 1 as described in Example 25. Cell lysates were immunoblotted using monoclonal active-β-catenin (ABC—Millipore), monoclonal β-catenin (β-catenin—BD Transduction Laboratories™), phospho-β-catenin (pβ-catenin—Cell Signaling Technology) and actin (Sigma). Primary antibodies were visualized with secondary HRP conjugated antibodies (Santa Cruz Biotechnology) and enhanced chemiluminescent substrate (Pierce® ECL Western Blotting Substrate, Thermo Scientific).
For immunocytochemical experiments, SW480 cells were seeded and treated as described in Example 24. After 72 hours, cells were fixed in 4% PFA in PBS for 10 minutes. Immunostaining was performed as described in standard protocols. Primary antibody (monoclonal β-catenin, BD Transduction Laboratories™) and secondary antibody (Alexa Fluor® 594, Invitrogen) were diluted 1:1000. The samples were imaged by using a Zeiss Axiovert 200M Fluorescence/Live cell Imaging Microscope with X40 magnification and the same exposure times. Cells were stained with DAPI (4′,6-diamidino-2-phenylindole) according to standard protocols.

[2] = tested on: canonical Wnt signaling; test: IC50 in STF/REN HEK293 cells, 50% Wnt3a-CM; format: cell-based; settings: Homo sapiens; STF/REN HEK293, 50% Wnt3a-CM, 24 h
Method in brief: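 HEK293 cells carrying STF/REN reporters seeded at 80,000/well on poly-L-lysine; after 24 h, exposed 24 h to compound in 50% Wnt3a-conditioned medium. Firefly and Renilla luciferase measured by Dual-Glo; IC50 fitted to a Langmuir binding isotherm.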

[3] = tested on: SW480 cells; test: Growth inhibition (GI50) MTS assay; format: cell-based; settings: Homo sapiens, 72 h
Procedure: Growth inhibition curves were prepared using SW480 cells, prepared essentially according to Example 23. SW480 cells (3000 cells per well) were seeded on 96 well plates (eight replicates per treatment). 24 hours later and daily thereafter, cell culture media (including 10% FBS) was mixed with various compound concentrations or with 0.1% DMSO vehicle and then added to the wells. Sixteen wells of seeded control cells, defining incubation time zero (to =24 hour after cell seeding), were incubated with […] substrate in 100 μl of phenol-free D-MEM (Invitrogen) for 2 hours, as described in the CellTiter 96® AQueous Non-Radioactive Cell Proliferation Assay protocol (MTS, Promega). The A490 was recorded. The treatment samples were likewise measured after 72 hours. The following formula was used to determine the single well relative A490 sample values: ((Sample A490−Average A490t0)*100)/(Average A490t720.1% DMSO control−Average A490t0)
XLfit (idbs) was used to determine the IC50 and GI50 values in inhibition experiments. The data were fit to the following formulae:
GI50: Eadie-Hofstee Model: fit=(A+((B*x)/((C*(D+1))+x))) inv=(((y−A)*(C*(D+1)))/((A+B)−y)) res=(y−fit)

[4] = tested on: PP2A(h); test: Phosphatase screen; format: biochemical, human; settings: 10 μM; 0.1% DMSO control = 100%
[5] = molecular target: T1, PTP-1B(h) (Homo sapiens, UniProt P18031); test: Phosphatase screen; format: biochemical; settings: 0.1% DMSO control = 100%
T1 construct: purchased Millipore (KinaseProfiler service)

[6] = molecular target: T2, RPTPm(h) (Homo sapiens, UniProt P28827); test: Phosphatase screen; format: biochemical; settings: 0.1% DMSO control = 100%
T2 construct: purchased Millipore (KinaseProfiler service)

[7] = molecular target: T3, TCPTP(h) (Homo sapiens, UniProt P17706); test: Phosphatase screen; format: biochemical; settings: 0.1% DMSO control = 100%
T3 construct: purchased Millipore (KinaseProfiler service)

[8] = molecular target: T4, ASK1(h) (Homo sapiens, UniProt Q99683); test: Kinase screen; format: biochemical; settings: 0.1% DMSO control = 100%
T4 construct: purchased Millipore (KinaseProfiler service)

[9] = molecular target: T5, CDK2/cyclinA(h) (Homo sapiens, UniProt P24941); test: Kinase screen; format: biochemical; settings: 0.1% DMSO control = 100%
T5 construct: purchased Millipore (KinaseProfiler service)

[10] = molecular target: T6, CDK9/cyclin T1(h) (Homo sapiens, UniProt P50750); test: Kinase screen; format: biochemical; settings: 0.1% DMSO control = 100%
T6 construct: purchased Millipore (KinaseProfiler service)

[11] = molecular target: T7, CK2(h) (Homo sapiens, UniProt P68400); test: Kinase screen; format: biochemical; settings: 0.1% DMSO control = 100%
T7 construct: purchased Millipore (KinaseProfiler service)

[12] = molecular target: T8, CK2α2(h) (Homo sapiens, UniProt P19784); test: Kinase screen; format: biochemical; settings: 0.1% DMSO control = 100%
T8 construct: purchased Millipore (KinaseProfiler service)

[13] = molecular target: T9, cSRC(h) (Homo sapiens, UniProt P12931); test: Kinase screen; format: biochemical; settings: 0.1% DMSO control = 100%
T9 construct: purchased Millipore (KinaseProfiler service)

[14] = molecular target: T10, eEF-2K(h) (Homo sapiens, UniProt O00418); test: Kinase screen; format: biochemical; settings: 0.1% DMSO control = 100%
T10 construct: purchased Millipore (KinaseProfiler service)

[15] = molecular target: T11, EGFR(h) (Homo sapiens, UniProt P00533); test: Kinase screen; format: biochemical; settings: 0.1% DMSO control = 100%
T11 construct: purchased Millipore (KinaseProfiler service)

[16] = molecular target: T12, Fyn(h) (Homo sapiens, UniProt P06241); test: Kinase screen; format: biochemical; settings: 0.1% DMSO control = 100%
T12 construct: purchased Millipore (KinaseProfiler service)

[17] = molecular target: T13, JAK2(h) (Homo sapiens, UniProt O60674); test: Kinase screen; format: biochemical; settings: 0.1% DMSO control = 100%
T13 construct: purchased Millipore (KinaseProfiler service)

[18] = molecular target: T14, MAPKAP-K2(h) (Homo sapiens, UniProt P49137); test: Kinase screen; format: biochemical; settings: 0.1% DMSO control = 100%
T14 construct: purchased Millipore (KinaseProfiler service)

[19] = molecular target: T15, PKA(h) (Homo sapiens, UniProt P17612); test: Kinase screen; format: biochemical; settings: 0.1% DMSO control = 100%
T15 construct: purchased Millipore (KinaseProfiler service)

[20] = molecular target: T16, SAPK2a(h) (Homo sapiens, UniProt Q16539); test: Kinase screen; format: biochemical; settings: 0.1% DMSO control = 100%
T16 construct: purchased Millipore (KinaseProfiler Service)

T11 sequence (P00533 25-1210): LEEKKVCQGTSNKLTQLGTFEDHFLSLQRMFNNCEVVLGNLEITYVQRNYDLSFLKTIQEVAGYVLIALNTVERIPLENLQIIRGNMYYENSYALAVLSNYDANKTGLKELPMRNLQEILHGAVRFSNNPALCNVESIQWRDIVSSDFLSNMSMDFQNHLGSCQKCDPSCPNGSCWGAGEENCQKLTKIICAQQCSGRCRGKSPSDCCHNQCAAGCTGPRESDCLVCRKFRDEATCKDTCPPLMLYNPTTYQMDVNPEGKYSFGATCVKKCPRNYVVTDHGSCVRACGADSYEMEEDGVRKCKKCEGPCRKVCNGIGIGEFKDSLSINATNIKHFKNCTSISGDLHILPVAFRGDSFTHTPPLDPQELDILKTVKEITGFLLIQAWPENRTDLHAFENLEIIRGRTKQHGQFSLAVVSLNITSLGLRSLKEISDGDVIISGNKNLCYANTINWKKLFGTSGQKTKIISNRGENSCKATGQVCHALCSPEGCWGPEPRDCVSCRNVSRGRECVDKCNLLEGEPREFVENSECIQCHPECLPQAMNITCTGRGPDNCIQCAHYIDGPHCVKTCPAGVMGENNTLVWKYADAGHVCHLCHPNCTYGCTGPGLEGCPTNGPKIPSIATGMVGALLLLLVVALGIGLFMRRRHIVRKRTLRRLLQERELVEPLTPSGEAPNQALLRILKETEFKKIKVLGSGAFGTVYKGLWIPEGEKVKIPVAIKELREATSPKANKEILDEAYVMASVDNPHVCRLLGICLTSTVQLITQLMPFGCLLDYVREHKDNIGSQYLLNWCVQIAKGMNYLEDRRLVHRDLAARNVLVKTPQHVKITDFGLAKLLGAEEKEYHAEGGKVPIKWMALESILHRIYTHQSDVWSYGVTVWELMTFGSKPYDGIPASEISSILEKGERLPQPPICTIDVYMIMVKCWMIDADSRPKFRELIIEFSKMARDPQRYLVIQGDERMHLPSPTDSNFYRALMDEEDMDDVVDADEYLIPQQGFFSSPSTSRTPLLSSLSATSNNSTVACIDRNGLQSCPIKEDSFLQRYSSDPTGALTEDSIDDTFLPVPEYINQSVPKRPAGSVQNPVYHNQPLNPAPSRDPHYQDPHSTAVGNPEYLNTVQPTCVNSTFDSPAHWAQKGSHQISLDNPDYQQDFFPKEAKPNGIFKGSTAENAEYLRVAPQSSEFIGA
T1 sequence (P18031 whole entry): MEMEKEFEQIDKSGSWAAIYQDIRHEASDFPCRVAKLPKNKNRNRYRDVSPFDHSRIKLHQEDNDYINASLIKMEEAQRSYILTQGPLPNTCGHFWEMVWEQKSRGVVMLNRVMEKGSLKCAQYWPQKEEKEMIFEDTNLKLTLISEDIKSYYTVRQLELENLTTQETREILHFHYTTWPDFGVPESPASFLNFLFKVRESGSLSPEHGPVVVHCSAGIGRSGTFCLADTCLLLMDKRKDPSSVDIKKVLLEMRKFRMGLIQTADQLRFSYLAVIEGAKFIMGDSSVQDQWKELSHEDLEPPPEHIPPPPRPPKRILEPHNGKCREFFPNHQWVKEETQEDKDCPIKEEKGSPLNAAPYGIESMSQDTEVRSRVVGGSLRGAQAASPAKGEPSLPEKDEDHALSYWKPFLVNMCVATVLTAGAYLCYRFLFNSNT
T13 sequence (O60674 whole entry): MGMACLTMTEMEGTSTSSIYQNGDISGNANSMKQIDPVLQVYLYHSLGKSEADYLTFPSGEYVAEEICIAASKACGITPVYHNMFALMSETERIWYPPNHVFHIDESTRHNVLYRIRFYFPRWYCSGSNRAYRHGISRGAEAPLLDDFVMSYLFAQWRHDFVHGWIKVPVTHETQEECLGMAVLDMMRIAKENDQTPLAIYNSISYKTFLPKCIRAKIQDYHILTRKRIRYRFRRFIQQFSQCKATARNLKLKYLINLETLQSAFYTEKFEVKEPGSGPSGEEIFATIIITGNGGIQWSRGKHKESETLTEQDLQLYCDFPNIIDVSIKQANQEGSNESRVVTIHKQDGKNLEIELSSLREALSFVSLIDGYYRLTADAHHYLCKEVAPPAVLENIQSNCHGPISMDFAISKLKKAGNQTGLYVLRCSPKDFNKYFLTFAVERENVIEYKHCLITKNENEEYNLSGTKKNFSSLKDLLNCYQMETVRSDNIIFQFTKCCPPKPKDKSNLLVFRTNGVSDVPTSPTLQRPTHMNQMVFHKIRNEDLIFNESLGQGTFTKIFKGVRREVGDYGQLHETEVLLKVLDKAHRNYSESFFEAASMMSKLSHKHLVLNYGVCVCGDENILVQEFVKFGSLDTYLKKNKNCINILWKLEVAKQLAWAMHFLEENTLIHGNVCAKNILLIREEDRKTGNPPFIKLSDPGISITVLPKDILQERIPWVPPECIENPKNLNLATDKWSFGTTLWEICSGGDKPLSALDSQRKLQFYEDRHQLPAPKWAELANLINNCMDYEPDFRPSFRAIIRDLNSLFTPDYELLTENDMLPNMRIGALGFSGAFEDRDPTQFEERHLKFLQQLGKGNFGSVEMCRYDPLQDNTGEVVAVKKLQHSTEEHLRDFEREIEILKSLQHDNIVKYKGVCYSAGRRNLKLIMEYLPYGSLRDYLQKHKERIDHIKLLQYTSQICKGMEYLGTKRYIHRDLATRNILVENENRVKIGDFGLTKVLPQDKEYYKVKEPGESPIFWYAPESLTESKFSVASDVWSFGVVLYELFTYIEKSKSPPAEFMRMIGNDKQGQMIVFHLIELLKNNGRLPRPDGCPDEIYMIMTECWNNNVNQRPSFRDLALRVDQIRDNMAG
T4 sequence (Q99683 whole entry): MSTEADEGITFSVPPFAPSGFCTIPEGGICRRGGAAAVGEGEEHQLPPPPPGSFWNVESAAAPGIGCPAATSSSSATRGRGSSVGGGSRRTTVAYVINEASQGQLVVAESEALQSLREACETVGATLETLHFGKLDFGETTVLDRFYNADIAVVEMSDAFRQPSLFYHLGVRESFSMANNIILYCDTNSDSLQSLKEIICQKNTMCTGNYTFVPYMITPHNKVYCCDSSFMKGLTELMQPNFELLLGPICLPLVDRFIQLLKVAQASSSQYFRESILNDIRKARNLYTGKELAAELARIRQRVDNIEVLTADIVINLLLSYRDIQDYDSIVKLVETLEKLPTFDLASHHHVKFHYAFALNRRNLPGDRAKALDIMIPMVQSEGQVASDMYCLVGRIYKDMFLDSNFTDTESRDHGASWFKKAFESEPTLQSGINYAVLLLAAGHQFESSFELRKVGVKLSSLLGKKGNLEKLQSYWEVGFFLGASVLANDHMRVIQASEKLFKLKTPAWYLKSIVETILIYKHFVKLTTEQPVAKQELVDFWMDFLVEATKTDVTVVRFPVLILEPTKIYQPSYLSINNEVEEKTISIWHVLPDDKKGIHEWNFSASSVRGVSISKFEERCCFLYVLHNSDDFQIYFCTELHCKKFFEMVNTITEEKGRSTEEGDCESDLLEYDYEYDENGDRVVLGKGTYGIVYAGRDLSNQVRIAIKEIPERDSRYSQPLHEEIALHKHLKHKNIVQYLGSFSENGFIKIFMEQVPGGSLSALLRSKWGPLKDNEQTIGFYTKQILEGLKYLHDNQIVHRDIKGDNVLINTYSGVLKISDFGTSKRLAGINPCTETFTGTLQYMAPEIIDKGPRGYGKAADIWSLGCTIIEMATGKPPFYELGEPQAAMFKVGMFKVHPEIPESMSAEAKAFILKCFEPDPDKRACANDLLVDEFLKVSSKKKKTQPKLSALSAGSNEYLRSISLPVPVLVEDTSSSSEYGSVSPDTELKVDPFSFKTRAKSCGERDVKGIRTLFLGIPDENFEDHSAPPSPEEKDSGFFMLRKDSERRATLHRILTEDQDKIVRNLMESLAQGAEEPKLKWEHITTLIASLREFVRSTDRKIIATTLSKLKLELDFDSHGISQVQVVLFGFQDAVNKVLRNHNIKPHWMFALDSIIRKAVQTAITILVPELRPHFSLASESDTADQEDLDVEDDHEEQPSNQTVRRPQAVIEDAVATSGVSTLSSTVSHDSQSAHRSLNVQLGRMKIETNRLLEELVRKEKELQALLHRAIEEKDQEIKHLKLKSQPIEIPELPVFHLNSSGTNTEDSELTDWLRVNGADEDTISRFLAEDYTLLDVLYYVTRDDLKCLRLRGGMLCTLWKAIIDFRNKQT
T14 sequence (P49137 whole entry): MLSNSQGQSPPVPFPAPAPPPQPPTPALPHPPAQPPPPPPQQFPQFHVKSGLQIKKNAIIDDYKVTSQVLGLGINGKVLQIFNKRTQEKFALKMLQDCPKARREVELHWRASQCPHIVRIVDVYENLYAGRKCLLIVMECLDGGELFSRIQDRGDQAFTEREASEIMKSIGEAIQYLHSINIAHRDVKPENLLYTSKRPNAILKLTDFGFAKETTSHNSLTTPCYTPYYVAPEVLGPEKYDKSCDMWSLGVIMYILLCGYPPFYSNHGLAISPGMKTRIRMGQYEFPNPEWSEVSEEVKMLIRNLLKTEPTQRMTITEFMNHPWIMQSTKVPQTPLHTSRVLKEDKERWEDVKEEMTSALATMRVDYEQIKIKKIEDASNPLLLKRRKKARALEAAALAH
T3 sequence (P17706 whole entry): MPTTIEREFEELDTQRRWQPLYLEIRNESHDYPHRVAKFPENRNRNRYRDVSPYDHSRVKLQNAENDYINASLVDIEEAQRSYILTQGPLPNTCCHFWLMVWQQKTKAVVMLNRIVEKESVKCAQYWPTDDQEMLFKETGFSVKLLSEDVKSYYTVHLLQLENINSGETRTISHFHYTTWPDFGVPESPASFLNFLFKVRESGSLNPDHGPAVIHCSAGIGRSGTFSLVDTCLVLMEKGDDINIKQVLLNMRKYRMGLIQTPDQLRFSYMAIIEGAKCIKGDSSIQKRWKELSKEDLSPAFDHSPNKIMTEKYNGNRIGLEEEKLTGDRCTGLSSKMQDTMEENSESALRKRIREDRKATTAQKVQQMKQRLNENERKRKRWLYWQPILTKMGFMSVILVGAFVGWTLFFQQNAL

COc1ccc(-n2c(SCc3nc(-c4ccc(C)cc4)no3)nnc2-c2ccncc2)cc1 [Compound 1]
active β-catenin (non-phosphorylated, ABC) in Western blot ([1]; SW480, 1 μM, 72 hours): barely detectable
overall levels of total β-catenin (Western blot) ([1]; SW480, 72-hour exposure): reduced
nuclear total β-catenin (immunofluorescence) ([1]; SW480, 72-hour incubation): Reduction
level of degradable pβ-catenin (Western blot) ([1]; SW480, 24 hours after adding compound): temporarily increased
active β-catenin (ABC) level (Western blot) ([1]; SW480, 72 h, all concentrations): even stronger reduction
IC50 [2]: 1.01 µM
GI50 [3]: 11.5 µM
Activity (%) [4]: 87%
activity at 10 µM [5]: 105%
activity at 10 µM [6]: 103%
activity at 10 µM [7]: 100%
activity at 10 µM [8]: 106%
activity at 10 µM [9]: 106%
activity at 10 µM [10]: 115%
activity at 10 µM [11]: 105%
activity at 10 µM [12]: 104%
activity at 10 µM [13]: 100%
activity at 10 µM [14]: 117%
activity at 10 µM [15]: 108%
activity at 10 µM [16]: 83%
activity at 10 µM [17]: 118%
activity at 10 µM [18]: 85%
activity at 10 µM [19]: 86%
activity at 10 µM [20]: 106%
